Experiment [1] concerns TNBC cell lines. Nature of the experiment: Cell viability assay, different TNBC cell lines. The format is cell-based, human. Conditions: Homo sapiens. The protocol: (§1) Four human TNBC cell lines (MDA-MB-231, MDA-MB-453, SUM-159, and BT-20), a non-TNBC breast cancer cell line (MCF-7) and a normal mammary epithelial cell line (MCF-10A) were cultured with DMEM (phenol free) supplemented with 2.5% CS-FBS and 1% L-Glu. 1.2 × 10^3 of cells were seeded into 384-well microplates and maintained for 24 h in an incubator at 37 °C in a 5% CO2, saturated humidified atmosphere. Different compounds were added into cells with 9 concentrations from 0.156 to 40 μM for 72 h. […] Then CCK-8 solution was added into cells and incubated for another 4 h. Absorbance was measured with a Microplate Reader at 450/600 nm. The IC50 values of the compounds on TNBC cell lines were derived using GraphPad Prism 5.0 (GraphPad Software, Inc., La Jolla, CA, USA).

Experiment [2] deals with MDA-MB-453. As to the kind of experiment: Cell viability assay (CCK-8), MDA-MB-453. The format is cell-based. Conditions: Homo sapiens, TNBC cell line, CCK-8, 72 h, 0.156 to 40 μM. How it is done:
as §1

Experiment [3] deals with MDA-MB-436. Nature of the experiment: Cell viability assay, MDA-MB-436. Format: cell-based. Particulars: Homo sapiens, TNBC cell line. How it is done: In addition to three TNBC cell lines (MDA-MB-231, MDA-MB-436, and SUM-159) and the breast cancer cell line MCF-7, we employed the normal mammary epithelial cell line MCF-10A, which was used for testing the compounds for their effects on normal breast cells (Table 6).
as §1

In experiment [4] the test system is MDA-MB-231. Nature of the experiment: Cell viability assay (CCK-8), MDA-MB-231. Particulars: Homo sapiens; for inhibition at 5 µg/mL: MDA-MB-231; for IC50: MDA-MB-231, 72 h, TNBC cell line, CCK-8, 72 h, 0.156 to 40 μM. Format: cell-based, human. The protocol: as §1, with “Different compounds were added into cells with 9 concentrations from 0.156 to 40 μM for 72 h.” left out

In experiment [5] the test system is SUM-159. Nature of the experiment: Cell viability assay (CCK-8), SUM-159. Particulars: Homo sapiens; for inhibition at 5 µg/mL: SUM159; for IC50: SUM159, 72 h, TNBC cell line, CCK-8, 72 h, 0.156 to 40 μM. The format is cell-based, human. How it is done:
as §1, with “Different compounds were added into cells with 9 concentrations from 0.156 to 40 μM for 72 h.” left out

In experiment [6] the test system is MCF-7. Nature of the experiment: Cell viability assay (CCK-8), MCF-7. Conditions: for IC50: Homo sapiens, MCF7, 72 h, non-TNBC breast cancer cell line, CCK-8, 72 h. Format: cell-based, human. The protocol:
as §1, with “Different compounds were added into cells with 9 concentrations from 0.156 to 40 μM for 72 h.” left out

Experiment [7] concerns MCF-10A. Nature of the experiment: Cell viability assay (CCK-8), MCF-10A. The format is cell-based, human. Conditions: for IC50: Homo sapiens, MCF-10A, normal mammary epithelial cell line, CCK-8, 72 h. How it is done:
as §1

The test system of experiment [8] is BT-20. As to the kind of experiment: Cell viability assay (CCK-8), BT-20. Format: cell-based. Conditions: Homo sapiens, TNBC cell line, CCK-8, 72 h, 0.156 to 40 μM. How it is done:
as §1

Experiment [9] concerns signal transducer and activator of transcription 3 (STAT3). Also noted: method as in ref 21, 22 = [21]; 21. Tweardy D.J. Huang X. Kasembeli M.M. Stat3 Inhibitors W.O. Patent 2009149192 A1 10 12 2009 || [22]; 22. Tweardy D.J. Kasembeli M.M. Xu M.X. Eckols T.K. Methods and Compositions for Treatment of Muscle Wasting, Muscle Weakness, and/or Cachexia Using Inhibitors of Stat3 W.O. Patent 2015010107 A1 22 1. Particulars: antitumor agent; cited from earlier work.

Experiment [10] has as its system heme detoxification protein (HDP). Set-up: method as in ref 20 = [20]; 20. Rathore D. Jani D. Nagarkatti R. HDP (Heme Detoxification Protein) Involved in Hemozoin Formation in Plasmodium and Theileria as an Anti-protozoal Target, and High-throughput Screening for Antimal. Particulars: cited from earlier work.

Entries after “also recorded” stand apart in the source; their conditions may differ. Where only a bound is given, the exact number is not on record here.

As to `COC(=O)c1c(C)oc2c1cc(NS(=O)(=O)c1ccc(OC)cc1)c1ccccc12` [Compound 2-5], the IC50 – broadly, the concentration at which inhibition is half-maximal – in experiment [1] is 2 to 3 µM; in [2] it was 2.95 µM; in experiment [3], 1.99 µM; in experiment [4], 3.12 µM; in [5] it was 2.91 µM; in experiment [6] it was greater than 40 µM. For the same compound, the IC50 in experiment [7] and in experiment [8] was greater than 40 µM in each case. The inhibition (usually how much of the control response was suppressed) at 5 µg/mL in [4] is 31%; in experiment [5] it was 56.8%. Also, the “inhibitory effect on MCF-7 (in words)” value in experiment [6] is on record as “no inhibitory effect; also recorded: no inhibitory activity”. In experiment [7], the “inhibitory effect on MCF-10A (in words)” value is “no inhibitory activity”.
As for `CCOC(=O)c1c(C)oc2c1cc(NS(=O)(=O)c1ccc(OC)cc1)c1ccccc12` [Compound 2-8], the concentration for half-maximal inhibition (IC50) is 2 to 3 µM in experiment [1]; 3.09 µM in [2]; 2.8 µM in [3]; 2.96 µM in experiment [4]; 2.5 µM in [5]; greater than 40 µM in [6]. Besides, the half-maximal inhibitory concentration (IC50) is greater than 40 µM in experiment [7] and 10.1 µM in experiment [8]. Besides, the inhibition at 5 µg/mL in [4] is 62.9%; in [5] it was 61.8%. The “inhibitory effect on MCF-7 (in words)” value in experiment [6] was “no inhibitory effect; also recorded: no inhibitory activity”. Also, the “inhibitory effect on MCF-10A (in words)” value in experiment [7] is listed as “no inhibitory activity”.
Regarding `COc1ccc(S(=O)(=O)Nc2cc(Cl)c(O)c3ccccc23)cc1` [Compound 2-9], the IC50 in [2] is 4.61 µM; in experiment [4], 6.22 µM; in [5] it was 18.1 µM; in [6], greater than 40 µM; in [8], greater than 40 µM. Moreover, the “inhibition of STAT3 (in words)” value in experiment [9] was “inhibition”.
Consider `CCOc1ccc(S(=O)(=O)Nc2cc(Cl)c(O)c3ccccc23)cc1` [Compound 2-11], for which the IC50 is 5.72 µM in [2]; 6.92 µM in [4]; greater than 40 µM in experiment [5]; greater than 40 µM in experiment [6]; greater than 40 µM in experiment [8]. The “antimalarial HDP inhibitor (in words)” value in experiment [10] is “inhibitor”.
